Assay [1] addresses T1, E. coli apo-tryptophanase (TnaA) (Escherichia coli, UniProt P0A853).
T1 construct: purchased Sigma-Aldrich
The assay can be described thus: In vitro tryptophanase assay (indole production by purified TnaA, Kovac's reagent). The format is biochemical. The protocol:
E. coli apo-tryptophanase (Sigma-Aldrich) was resuspended in 1 ml 100 mM potassium phosphate pH 8 buffer, aliquoted and kept at −20° C. 5 μl of apo-tryptophanase were added to 120 μl of 100 mM potassium phosphate pH 8 buffer with 1 mM pyrodxal-5-phosphate (PLP) and various treatments (NaCl, NaHS, L-cysteine, DTT or Na2S4) and incubated for 45 min at 37° C. Then 125 μl of 100 mM potassium phosphate with 5 mM L-tryptophan were added and the samples were incubated for 1 h at 37° C. Then 250 μl of 20% TCA were added to the samples, followed by a 15 min incubation on ice to precipitate TnaA. […] For the WT and ΔdecR TnaA activity assay, TnaA was purified from 10 ml bacterial cultures grown for 3 h in LB and then supplemented with 5 mM L-cysteine for 1 h, using the His-Spin protein miniprep kit (Zymo research). The purified protein was diluted 1:10 in 250 μl of 100 mM potassium phosphate pH 8 buffer with 1 mM PLP and 5 mM L-tryptophan and incubated for 1 h at 37° C., further processing was performed as mentioned above. TnaA activity was normalized to purified protein concentration, measured using BCA assay kit (Thermo Fisher).

For assay [2], the system named is WT E. coli cultures. The assay can be described thus: Indole in E. coli culture supernatants (Kovac's reagent and LC-MS/MS). The format is cell-based. The conditions noted are these: LB broth supplemented. The protocol:
(§1) E. coli K-12 BW25113 strain were used in all the experiments (H2S production, indole production and in vivo experiments). For technical reasons, E. coli K-12 MG1655 was used in the cloning process to generate ΔdecR and tnaA-his, and E. coli K-12 W3110 was used for expressing and purifying TnaA-His. Bacteria were grown in LB broth (Merck) at 37° C. with shaking (250 rpm) aerobically or without shaking anaerobically and where mentioned, LB was supplemented with L-cysteine (Sigma-Aldrich), sodium hydrosulfide (Sigma-Aldrich) and/or L-tryptophan (Sigma-Aldrich). For selection on LB+Chloramphenicol (Cm) agar plates, a concentration of 10 μg/ml Cm was used. The E. coli tnaA739::kan strain was obtained from Yale University Coli Genetic Stock Center (CGSC) as part of the Keio collection (Baba et al., 2006). […]
The TMT fractions were analyzed by LC-MS3 on an Orbitrap Fusion™ Lumos™ Tribrid™ mass spectrometer. Labelled peptide samples were analyzed with an LC-MS3 data collection strategy (McAlister G C et al (2014) Anal. Chem. 86:7150-8) on an Orbitrap Fusion mass spectrometer (Thermo Fisher Scientific) equipped with a Thermo Easy-nLC 1200 for online sample handling and peptide separations. […] E. coli TnaA-His samples were analyzed at the Mass Spectrometry and Proteomics Resource Laboratory. […]

Assay [3] concerns E. coli lysates. The assay can be described thus: Pull-down of S-sulfhydrated proteins from E. coli lysates (Coomassie / silver stain).
For assay [4], the system named is E. coli. The assay can be described thus: E. coli sulfide (H2S) production from L-cysteine in culture (lead acetate, methylene blue) and growth. The format is cell-based. The following applies: LB supplemented with cysteine, aerobic or anaerobic. The protocol: as §1, with “used.” for “used. The E. coli tnaA739::kan strain was obtained from Yale University Coli Genetic Stock Center (CGSC) as part of the Keio collection (Baba et al., 2006).”
Lead acetate paper was prepared by incubating pre-cut Whatman paper in 20 mM lead acetate solution for 20 min at room temperature and then was dried for 20 min at 110° C. and kept in the dark (Hine and Mitchell, 2017). […] 200 μl were plated in 96-well plates in duplicate and analyzed by lead acetate sulfide assay as described above. […] The samples were vortexed briefly and incubated for 20 min at 37° C., thereafter they were centrifuged for 4 min at max speed and the supernatants were transferred to a 96-well plate to determine absorbance at OD670 nm. […] Then 300 μl of DPD/FeCl3 were added and the samples were incubated at 37° C. for 20 min, centrifuged for 4 min at max speed and absorbance was measured in OD670 nm. […]

In assay [5] the target is T2, E. coli TnaA (Escherichia coli, UniProt P0A853).
T2 construct: made in house; host or cells: E. coli K-12 carrying the chromosomal tnaA-his allele under its native promoter (W3110 for purification)
The assay can be described thus: TnaA S-sulfhydration by pull-down and Western blot (E. coli lysates, purified TnaA). The format is biochemical. The protocol: TnaA purity was determined by Coomassie blue staining.

Setting [6] is: treated E. coli lysates, Western blot.

From patent publication US20210260009A1, “METHODS AND COMPOSITIONS FOR THE TREATMENT OF A RENAL DISEASE” (priority 2020, published 2021) come the findings set out here.

T2 sequence (P0A853 other isoform, or with tags, fused parts or gaps): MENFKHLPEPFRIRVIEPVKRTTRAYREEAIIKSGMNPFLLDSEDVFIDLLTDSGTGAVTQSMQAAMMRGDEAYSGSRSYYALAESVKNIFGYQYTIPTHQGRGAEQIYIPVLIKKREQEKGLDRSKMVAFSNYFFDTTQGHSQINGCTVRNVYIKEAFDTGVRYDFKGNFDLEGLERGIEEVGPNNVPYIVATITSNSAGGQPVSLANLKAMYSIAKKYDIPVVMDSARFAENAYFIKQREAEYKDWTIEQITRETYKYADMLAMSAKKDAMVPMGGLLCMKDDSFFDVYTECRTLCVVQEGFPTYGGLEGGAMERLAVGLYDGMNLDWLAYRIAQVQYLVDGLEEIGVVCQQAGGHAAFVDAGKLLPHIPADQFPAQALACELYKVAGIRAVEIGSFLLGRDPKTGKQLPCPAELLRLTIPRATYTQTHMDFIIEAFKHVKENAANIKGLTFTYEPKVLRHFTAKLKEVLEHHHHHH
T1 sequence (P0A853 whole entry): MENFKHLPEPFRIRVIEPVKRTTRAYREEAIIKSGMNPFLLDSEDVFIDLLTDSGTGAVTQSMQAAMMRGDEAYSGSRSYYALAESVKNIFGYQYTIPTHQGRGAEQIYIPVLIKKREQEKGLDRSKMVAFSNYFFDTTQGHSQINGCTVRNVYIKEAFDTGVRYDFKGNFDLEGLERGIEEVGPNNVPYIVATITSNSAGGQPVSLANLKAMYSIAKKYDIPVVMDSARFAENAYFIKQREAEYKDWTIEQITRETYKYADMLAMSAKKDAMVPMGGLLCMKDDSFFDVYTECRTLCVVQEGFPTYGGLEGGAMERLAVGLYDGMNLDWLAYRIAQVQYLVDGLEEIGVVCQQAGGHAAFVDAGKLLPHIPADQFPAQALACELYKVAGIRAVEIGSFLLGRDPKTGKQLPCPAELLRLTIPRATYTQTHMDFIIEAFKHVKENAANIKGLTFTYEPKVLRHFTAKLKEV

Consider `O[C@H](CS)[C@H](O)CS` (racemic) [DTT, dithiothreitol], for which the “increase of TnaA activity” value in assay [1] (assay control) is reported as 318%.

As for `N[C@@H](CS)C(=O)O` [cysteine, L-cysteine], the “indole concentrations in the supernatants” value in assay [2] is recorded as “reduced indole concentrations”. For the same compound, in assay [3] (lysates of E. coli grown in supplemented media vs LB alone), the S-sulfhydration of proteins result is reported as “higher level of S-sulfhydration”. The E. coli growth entry in assay [4] is “without any effects on growth”. The “sulfide production by E. coli” value in assay [4] (lead acetate assay) is “dose-dependent manner”.

Take `OO` [H2O2]: the S-sulfhydration of proteins result in assay [3] (treatment of bacterial lysates) was “reduced the detection of S-sulfhydration proteins”. The “TnaA S-sulfhydration” value in assay [5] (setting [6]) is reported as “reduced”.

In the case of `S` [NaHS, sodium hydrosulfide], the “indole concentrations in the supernatants” value in assay [2] is recorded as “reduced indole concentrations”. In addition, the S-sulfhydration of proteins result in assay [3] (treatment of bacterial lysates) was “induced higher S-sulfhydration levels”. In assay [5] (setting [6]), the “TnaA S-sulfhydration” value is given as “increased”.

For the compound `[Na+].[Na+].[S-]SS[S-]` [Na2S4, disodium tetrasulfide], the “reduction of TnaA enzymatic activity” value in assay [1] came out at 60%. For the same compound, in assay [5] (purified E. coli TnaA, incubation), the “TnaA S-sulfhydration” value was “led to TnaA S-sulfhydration”.
